Laboratory results from patent US9399028B2, “Treatment of drug resistant cancer” (ROCKEFELLER UNIVERSITY (THE), priority 2012, dated 2016).
Counter-ions that a name gives are not always drawn.

Key:
[1] = system: ApoE promoter fused to ME.1 or ME.2 in MeWo cells; assay: ApoE promoter activity (luciferase) assay; format: cell-based, human; settings: 1 μM, 24 hours
Excerpt: The ApoE promoter, consisting of a sequence spanning 980 base pairs upstream and 93 base pairs downstream of the ApoE gene, was cloned into a pGL3-Basic vector (E1751, Promega Corporation, Madison, Wis.) upstream of the firefly luciferase gene using NheI and SacI restriction enzymes. Then, multi-enhancer elements 1 (ME.1) and 2 (ME.2) were cloned directly upstream of the ApoE promoter using MluI and […] restriction enzymes. To assess ApoE promoter- and ME.1/ME.2-driven transcriptional activation by LXR agonists, 5×10^4 MeWo cells were seeded into a 24-well plate. The following day, 100 ng of pGL3-ME.1/ME.2-ApoE promoter construct and 2 ng of pRL-CMV renilla luciferase construct (E2261, Promega) were co-transfected into cells in the presence of DMSO, GW3965, or T0901317 at 1 μM, each condition in quadruplicate. To assess transcriptional activation by LXRα or LXRβ, 5×10^4 MeWo cells expressing a control shRNA or shRNA targeting LXRα or LXRβ were seeded into a 24-well plate. […] After 24 hours, cells were lysed, and cell lysate was analyzed for firefly and renilla luciferase activity using the Dual Luciferase Assay System (E1960, Promega) and a Bio-Tek Synergy NEO Microplate Reader. Firefly luciferase signal was normalized to renilla luciferase signal and all data are expressed relative to the luciferase activity ratio measured in the DMSO-treated control cells.

[2] = system: MeWo-LM2 cells, MeWo brain metastatic derivative cells; assay: Systemic and brain metastasis after intracardiac injection into athymic nude mice; format: in vivo, human; settings: diet 100 mg/kg
Experimental: After 8 hours, the transfection media was replaced with fresh media. After 48 hours, 1×10^5 cells were injected intravenously into NOD-SCID mice to assess lung metastatic colonization or through intracardiac injection into athymic nude mice to assess systemic metastasis. For cell invasion and endothelial recruitment in vitro assays, the cells were used 96 hours post-transfection.
Melanoma cells used for in vivo metastasis assays were transduced with a stably expressed retroviral construct encoding a luciferase reporter gene (Ponomarev et al., 2004), allowing us to monitor the in vivo progression of melanoma cells by bioluminescence imaging. The following numbers of melanoma cells, resuspended in 100 μL, of PBS, were injected intravenously via the tail-vein: 4×10^4 MeWo cells, 2.5×10^5 HT-144 cells, 2×10^5 SK-Mel-334.2 cells, 5×10^4B16F10 cells, and 1×10^5 YUMM cells. The MeWo, HT-144, and SK-Mel-334.2 cells were injected into 6-8 week-old sex-matched NOD scid mice, while the B16F10 and YUMM cells were injected into 6-8 week-old sex-matched C57BL/6 mice. […] To assess the effect of GW3965 treatment on brain metastasis, 1×10^5 MeWo brain-metastatic derivatives were injected intracardially into athymic nude mice. Immediately following injection, mice were randomly assigned to a control diet or GW3965-supplemented diet (100 mg/kg). […]

[3] = system: LXR signaling in the brain; settings: cited from earlier work
MeWo cells = assay: Orthotopic metastasis assay after tumor excision; format: in vivo, human; settings: chow 100 mg/kg for 1 month
Experimental: To determine the effect of GW3965 treatment on lung colonization by melanoma cells dissociated from an orthotopic site, 1×10^6 MeWo cells expressing a luciferase reporter were subcutaneously injected into both lower flanks of NOD Scid mice. Upon the formation of tumors measuring 300 mm^3 in volume, the tumors were excised and the mice were randomly assigned to a control diet or a GW3965-supplemented diet (100 mg/kg) treatment. One month after tumor excision, the lungs were extracted and lung colonization was measured by ex vivo bioluminescence imaging. To histologically confirm the extent of melanoma lung colonization, lungs were then fixed in 4% PFA overnight, paraffin-embedded, section into […] increments and stained for human vimentin (VP-V684, Vector Laboratories).

[4] = system: MeWo, SK-Mel-2, SK-Mel-334.2, SK-Mel-239 human melanoma cells; assay: Subcutaneous human melanoma tumor growth in immunocompromised mice; format: in vivo
Excerpt: (§1) All data are represented as mean±SEM.
as §1

HUVEC = assay: Endothelial migration and chemotaxis assay (cancer cell-free); format: cell-based, human; settings: LRP8 receptor-dependent
Experimental: Serum-starved HUVEC's were pulsed with Cell Tracker Red CMTPX dye for 45 minutes and seeded into HTS Fluoroblock trans-well inserts at a concentration of 1×10^5 HUVEC's in 0.5 mL starvation media per each insert. The assay was allowed to proceed for 16-18 hours at 37° C., and the inserts were processed and analyzed as described above (See Matrigel Invasion Assay).
HUVEC's were serum-starved in 0.2% FBS EGM-2 media for 16 hours and labeled with Cell Tracker Red CMTPX dye for 45 minutes. Meanwhile, the indicated amounts (1-5 μg) of recombinant human ApoE3 or BSA were mixed with 250 μL of matrigel (356231, BD Biosciences) and allowed to solidify at the bottom of a 24-well plate for 30 min. 250 μL of HUVEC EGM-2 media containing 0.2% FBS was then added to each matrigel-coated well, and […] HTS Fluoroblock inserts were fitted into each well. 1×10^5 HUVEC's, resuspended in 0.5 mL of starvation media, were seeded into each insert and allowed to migrate along the matrigel gradient for 16-18 hours at 37° C. Upon completion of the assay, the inserts were mounted on slides and analyzed as described above (See Matrigel Invasion Assay).

| Compound | activity of luciferase reporter with ApoE promoter fused to ME.1 or ME.2 [1] | systemic dissemination and brain colonization [2] | blood brain barrier crossing ([3]; in vivo) | amyloid plaque pathology and memory deficits in pre-clinical models of Alzheimer's disease ([3]; oral delivery) | inhibition of lung colonization by disseminated melanoma cells post-tumor excision (MeWo cells) [fold] | suppression of growth of SK-Mel-239 vemurafenib-resistant line ([4]; diet 100 mg/kg, NOD Scid gamma mice) [%] | overall survival time, MeWo and SK-Mel-334.2 xenografts ([4]; immunocompromised mice, chow 100 mg/kg after tumor establishment) | tumor growth inhibition, MeWo ([4]; oral in diet) [%] | tumor growth inhibition, SK-Mel-2 ([4]; oral in diet) [%] | tumor growth inhibition, SK-Mel-334.2 ([4]; oral in diet) [%] | growth of in vivo-derived DTIC-resistant MeWo tumors ([4]; oral, diet 100 mg/kg, NOD Scid gamma mice) | endothelial migration in trans-well and gradient-based chemotactic assay (HUVEC) |
| --- | --- | --- | --- | --- | --- | --- | --- | --- | --- | --- | --- | --- |
| O=S(=O)(c1ccccc1)N(CC(F)(F)F)c1ccc(C(O)(C(F)(F)F)C(F)(F)F)cc1 [T0901317 1] | enhance | – | – | – | – | – | – | – | – | – | – | – |
| O=C(O)Cc1cccc(OCCCN(Cc2cccc(C(F)(F)F)c2Cl)CC(c2ccccc2)c2ccccc2)c1 [GW3965 2, 3-[3-[N-(2-Chloro-3-trifluoromethylbenzyl)-(2,2-diphenylethyl)amino]propyloxy]phenylacetic acid hydrochloride] | enhance | inhibited | can efficiently cross the blood brain barrier | improve amyloid plaque pathology and memory deficits | 17 | 72 | substantially prolonged | 70 | 49 | 73 | strongly inhibited | – |
| recombinant human ApoE3: recombinant human ApoE3 (4696, BioVision) | – | – | – | – | – | – | – | – | – | – | – | sufficient to inhibit |
